Laboratory results published in patent US20260285875A1, “INHIBITORS OF PARG” (858 Therapeutics, Inc., priority 2023, published 2026).

Biological target: T1, cellular PARG (Homo sapiens, UniProt Q86W56)
T1 construct: endogenous in cells; host or cells: HeLa
Assay: Nuclear PAR accumulation assay (immunofluorescence high-content imaging, MMS-treated HeLa cells)
Assay type: cell-based
Conditions: 1 hour compound then MMS 50 μg/mL for an additional hour
Summary of the method: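 HeLa cells pretreated with compound for 1 h at 37° C, then given 50 μg/mL MMS for another hour. After methanol fixation, PAR was immunostained with DAPI nuclear counterstain; per-nucleus intensity and percent PAR-positive cells were imaged at 20× (≥1,000 cells/well). IC50 from four-parameter logistic fit.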

T1 sequence (Q86W56 whole entry): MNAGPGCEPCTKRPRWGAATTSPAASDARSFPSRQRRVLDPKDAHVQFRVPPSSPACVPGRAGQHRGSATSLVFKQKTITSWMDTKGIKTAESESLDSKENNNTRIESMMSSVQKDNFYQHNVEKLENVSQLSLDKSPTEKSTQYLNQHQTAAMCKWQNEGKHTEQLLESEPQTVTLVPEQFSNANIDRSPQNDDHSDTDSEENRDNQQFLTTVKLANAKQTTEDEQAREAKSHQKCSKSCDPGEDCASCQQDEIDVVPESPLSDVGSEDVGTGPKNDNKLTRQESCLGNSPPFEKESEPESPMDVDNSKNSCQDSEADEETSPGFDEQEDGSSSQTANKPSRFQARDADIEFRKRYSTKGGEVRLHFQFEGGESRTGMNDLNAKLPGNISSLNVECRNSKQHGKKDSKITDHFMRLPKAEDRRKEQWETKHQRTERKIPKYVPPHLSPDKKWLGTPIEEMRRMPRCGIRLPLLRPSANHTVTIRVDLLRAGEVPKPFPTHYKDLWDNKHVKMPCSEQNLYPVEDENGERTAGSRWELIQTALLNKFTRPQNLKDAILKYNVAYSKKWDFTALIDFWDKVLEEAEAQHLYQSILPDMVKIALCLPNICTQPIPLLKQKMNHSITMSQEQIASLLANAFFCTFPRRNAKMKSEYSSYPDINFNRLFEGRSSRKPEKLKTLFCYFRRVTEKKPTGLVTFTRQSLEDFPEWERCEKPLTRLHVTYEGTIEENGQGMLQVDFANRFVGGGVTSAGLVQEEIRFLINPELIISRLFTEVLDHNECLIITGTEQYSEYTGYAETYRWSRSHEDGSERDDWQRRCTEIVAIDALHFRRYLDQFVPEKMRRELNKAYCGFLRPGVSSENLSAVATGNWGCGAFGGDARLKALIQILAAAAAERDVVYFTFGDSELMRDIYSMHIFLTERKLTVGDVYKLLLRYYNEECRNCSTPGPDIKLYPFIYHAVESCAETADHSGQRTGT

`[2H]C([2H])(c1cnn(C)c1)N1C(=O)c2cc(S(=O)(=O)NC3(C)CC3)ccc2N2C1=NC[C@H]2C#Cc1cncc(N)c1` [Example 252, (R)-1-((5-aminopyridin-3-yl)ethynyl)-4-((1-methyl-1H-pyrazol-4-yl)methyl-d2)-N-(1-methylcyclopropyl)-5-oxo-1,2,4,5-tetrahydroimidazo[1,2-a]quinazoline-7-sulfonamide] and `[2H]C([2H])(c1cnn(C)c1)N1C(=O)c2cc(S(=O)(=O)NC3(C)CC3)ccc2N2C1=NC[C@H]2C#Cc1cncc(OC)c1` [Example 269, (R)-1-((5-methoxypyridin-3-yl)ethynyl)-4-((1-methyl-1H-pyrazol-4-yl)methyl-d2)-N-(1-methylcyclopropyl)-5-oxo-1,2,4,5-tetrahydroimidazo[1,2-a]quinazoline-7-sulfonamide] cannot be ordered by IC50: less than 100 nM for the first, less than 100 nM for the second.

`[2H]C([2H])(c1cnn(C)c1)N1C(=O)c2cc(S(=O)(=O)NC3(C)CC3)ccc2N2C1=NC[C@H]2C#Cc1cncc(N(C)C)c1` [Example 253, (R)-1-((5-(dimethylamino)pyridin-3-yl)ethynyl)-4-((1-methyl-1H-pyrazol-4-yl)methyl-d2)-N-(1-methylcyclopropyl)-5-oxo-1,2,4,5-tetrahydroimidazo[1,2-a]quinazoline-7-sulfonamide] and `[2H]C([2H])(c1cnn(C)c1)N1C(=O)c2cc(S(=O)(=O)NC3(C)CC3)ccc2N2C1=NC[C@H]2C#Cc1cnc(C)nc1` [Example 275, (R)-4-((1-methyl-1H-pyrazol-4-yl)methyl-d2)-N-(1-methylcyclopropyl)-1-((2-methylpyrimidin-5-yl)ethynyl)-5-oxo-1,2,4,5-tetrahydroimidazo[1,2-a]quinazoline-7-sulfonamide] cannot be ordered by IC50: less than 100 nM for the first, less than 100 nM for the second.

First: C=Cc1ccc(CN2C(=O)c3cc(S(=O)(=O)NC4(C)CC4)ccc3N3C2=NC[C@H]3C)cn1 [Example 254, (R)-1-methyl-N-(1-methylcyclopropyl)-5-oxo-4-((6-vinylpyridin-3-yl)methyl)-1,2,4,5-tetrahydroimidazo[1,2-a]quinazoline-7-sulfonamide]
Second: C=Cc1cc(CN2C(=O)c3cc(S(=O)(=O)NC4(C)CC4)ccc3N3C2=NC[C@H]3C)ccn1 [Example 255, (R)-1-methyl-N-(1-methylcyclopropyl)-5-oxo-4-((2-vinylpyridin-4-yl)methyl)-1,2,4,5-tetrahydroimidazo[1,2-a]quinazoline-7-sulfonamide]
The IC50 of the first is higher: 100 to 1000 nM for the first, less than 100 nM for the second. The second is the more potent here.

`CN1CCC[C@@H]1C#C[C@@H]1CN=C2N(Cc3cnn(C)c3)C(=O)c3cc(S(=O)(=O)NC4(C)CC4)ccc3N21` [Example 256, (R)-4-((1-methyl-1H-pyrazol-4-yl)methyl)-N-(1-methylcyclopropyl)-1-(((R)-1-methylpyrrolidin-2-yl)ethynyl)-5-oxo-1,2,4,5-tetrahydroimidazo[1,2-a]quinazoline-7-sulfonamide] and `CN1CCC[C@H]1[C@@H]1CN=C2N(Cc3cnn(C)c3)C(=O)c3cc(S(=O)(=O)NC4(C)CC4)ccc3N21` [Example 276, (S)-4-((1-methyl-1H-pyrazol-4-yl)methyl)-N-(1-methylcyclopropyl)-1-((S)-1-methylpyrrolidin-2-yl)-5-oxo-1,2,4,5-tetrahydroimidazo[1,2-a]quinazoline-7-sulfonamide] cannot be ordered by IC50: less than 100 nM for the first, less than 100 nM for the second.

`CCN1C(=O)c2cc(S(=O)(=O)NC3(C)CC3)ccc2N2C1=NC[C@H]2C#Cc1nn(C)nc1C` [Example 257, (R)-1-((2,5-dimethyl-2H-1,2,3-triazol-4-yl)ethynyl)-4-ethyl-N-(1-methylcyclopropyl)-5-oxo-1,2,4,5-tetrahydroimidazo[1,2-a]quinazoline-7-sulfonamide] and `CCN1C(=O)c2cc(S(=O)(=O)NC3(C)CC3)ccc2N2C1=NC[C@H]2C#Cc1cn(C)nc1C` [Example 265, (R)-1-((1,3-dimethyl-1H-pyrazol-4-yl)ethynyl)-4-ethyl-N-(1-methylcyclopropyl)-5-oxo-1,2,4,5-tetrahydroimidazo[1,2-a]quinazoline-7-sulfonamide] cannot be ordered by IC50: less than 100 nM for the first, less than 100 nM for the second.

`[2H]C([2H])(c1cnn(C)c1)N1C(=O)c2cc(S(=O)(=O)NC3(C)CC3)ccc2N2C1=NC[C@H]2C#Cc1cnc(OC)nc1` [Example 259, (R)-1-((2-methoxypyrimidin-5-yl)ethynyl)-4-((1-methyl-1H-pyrazol-4-yl)methyl-d2)-N-(1-methylcyclopropyl)-5-oxo-1,2,4,5-tetrahydroimidazo[1,2-a]quinazoline-7-sulfonamide] and `[2H]C([2H])(c1cnn(C)c1)N1C(=O)c2cc(S(=O)(=O)NC3(C)CC3)ccc2N2C1=NC[C@H]2C#Cc1cnc(C2CC2)nc1` [Example 261, (R)-1-((2-cyclopropylpyrimidin-5-yl)ethynyl)-4-((1-methyl-1H-pyrazol-4-yl)methyl-d2)-N-(1-methylcyclopropyl)-5-oxo-1,2,4,5-tetrahydroimidazo[1,2-a]quinazoline-7-sulfonamide] cannot be ordered by IC50: less than 100 nM for the first, less than 100 nM for the second.

`[2H]C([2H])(c1cnn(C)c1)N1C(=O)c2cc(S(=O)(=O)NC3(C)CC3)ccc2N2C1=NC[C@H]2C#Cc1cccnn1` [Example 260, (R)-4-((1-methyl-1H-pyrazol-4-yl)methyl-d2)-N-(1-methylcyclopropyl)-5-oxo-1-(pyridazin-3-ylethynyl)-1,2,4,5-tetrahydroimidazo[1,2-a]quinazoline-7-sulfonamide] and `[2H]C([2H])(c1cnn(C)c1)N1C(=O)c2cc(S(=O)(=O)NC3(C)CC3)ccc2N2C1=NC[C@H]2C#Cc1cncnc1N` [Example 268, (R)-1-((4-aminopyrimidin-5-yl)ethynyl)-4-((1-methyl-1H-pyrazol-4-yl)methyl-d2)-N-(1-methylcyclopropyl)-5-oxo-1,2,4,5-tetrahydroimidazo[1,2-a]quinazoline-7-sulfonamide] cannot be ordered by IC50: less than 100 nM for the first, less than 100 nM for the second.

`[2H]C([2H])(c1cnn(C)c1)N1C(=O)c2cc(S(=O)(=O)NC3(C)CC3)ccc2N2C1=NC[C@H]2C#Cc1cncnc1OC` [Example 262, (R)-1-((4-methoxypyrimidin-5-yl)ethynyl)-4-((1-methyl-1H-pyrazol-4-yl)methyl-d2)-N-(1-methylcyclopropyl)-5-oxo-1,2,4,5-tetrahydroimidazo[1,2-a]quinazoline-7-sulfonamide] and `[2H]C([2H])(c1cnn(C)c1)N1C(=O)c2cc(S(=O)(=O)NC3(C)CC3)ccc2N2C1=NC[C@H]2C#Cc1cncnc1NC` [Example 263, (R)-4-((1-methyl-1H-pyrazol-4-yl)methyl-d2)-1-((4-(methylamino)pyrimidin-5-yl)ethynyl)-N-(1-methylcyclopropyl)-5-oxo-1,2,4,5-tetrahydroimidazo[1,2-a]quinazoline-7-sulfonamide] cannot be ordered by IC50: less than 100 nM for the first, less than 100 nM for the second.

Compared with `CCN1C(=O)c2cc(S(=O)(=O)NC3(C)CC3)c(F)cc2N2C1=N[C@H]1CCC[C@H]12` [Example 264, (7aS,10aR)-6-ethyl-2-fluoro-N-(1-methylcyclopropyl)-5-oxo-6,7a,8,9,10,10a-hexahydro-5H-cyclopenta[4,5]imidazo[1,2-a]quinazoline-3-sulfonamide], `COc1ccc(CN2C(=O)c3cc(S(=O)(=O)NC4(C)CC4)ccc3N3C2=N[C@H]2CCC[C@H]23)cn1` [Example 273, (7aS,10aR)-6-((6-methoxypyridin-3-yl)methyl)-N-(1-methylcyclopropyl)-5-oxo-6,7a,8,9,10,10a-hexahydro-5H-cyclopenta[4,5]imidazo[1,2-a]quinazoline-3-sulfonamide] is higher in IC50: less than 100 nM for the first, 100 to 1000 nM for the second. The first is the more potent here.

`[2H]C([2H])(c1cnn(C)c1)N1C(=O)c2cc(S(=O)(=O)NC3(C)CC3)ccc2N2C1=NC[C@H]2C#Cc1nn(C)nc1C` [Example 266, (R)-1-((2,5-dimethyl-2H-1,2,3-triazol-4-yl)ethynyl)-4-((1-methyl-1H-pyrazol-4-yl)methyl-d2)-N-(1-methylcyclopropyl)-5-oxo-1,2,4,5-tetrahydroimidazo[1,2-a]quinazoline-7-sulfonamide] and `Cc1nn(C)cc1C#C[C@@H]1CN=C2N(CC3CC3)C(=O)c3cc(S(=O)(=O)NC4(C)CC4)ccc3N21` [Example 277, (R)-4-(cyclopropylmethyl)-1-((1,3-dimethyl-1H-pyrazol-4-yl)ethynyl)-N-(1-methylcyclopropyl)-5-oxo-1,2,4,5-tetrahydroimidazo[1,2-a]quinazoline-7-sulfonamide] cannot be ordered by IC50: less than 100 nM for the first, less than 100 nM for the second.

First: C[C@@H]1CN=C2N(Cc3ccnc(/C=C/CN(C)C)c3)C(=O)c3cc(S(=O)(=O)NC4(C)CC4)ccc3N21 [Example 267, (R,E)-4-((2-(3-(dimethylamino)prop-1-en-1-yl)pyridin-4-yl)methyl)-1-methyl-N-(1-methylcyclopropyl)-5-oxo-1,2,4,5-tetrahydroimidazo[1,2-a]quinazoline-7-sulfonamide]
Second: C[C@@H]1CN=C2N(CC#Cc3ccc(F)nc3)C(=O)c3cc(S(=O)(=O)NC4(C)CC4)ccc3N21 [Example 278, (R)-4-(3-(6-fluoropyridin-3-yl)prop-2-yn-1-yl)-1-methyl-N-(1-methylcyclopropyl)-5-oxo-1,2,4,5-tetrahydroimidazo[1,2-a]quinazoline-7-sulfonamide]
The IC50 of the first is higher: 1000 to 10000 nM for the first, 100 to 1000 nM for the second.

`CN(C)C1([C@@H]2CN=C3N(Cc4cnn(C)c4)C(=O)c4cc(S(=O)(=O)NC5(C)CC5)ccc4N32)CC1` [Example 270, (S)-1-(1-(dimethylamino)cyclopropyl)-4-((1-methyl-1H-pyrazol-4-yl)methyl)-N-(1-methylcyclopropyl)-5-oxo-1,2,4,5-tetrahydroimidazo[1,2-a]quinazoline-7-sulfonamide] and `[2H]C([2H])(c1cnn(C)c1)N1C(=O)c2cc(S(=O)(=O)NC3(C)CC3)c(F)cc2N2CC(C)(C)N=C21` [Example 274, 8-fluoro-2,2-dimethyl-4-((1-methyl-1H-pyrazol-4-yl)methyl-d2)-N-(1-methylcyclopropyl)-5-oxo-1,2,4,5-tetrahydroimidazo[1,2-a]quinazoline-7-sulfonamide] cannot be ordered by IC50: less than 100 nM for the first, less than 100 nM for the second.
